Source: ChEMBL document CHEMBL3046015, “Structure-dependent phytotoxicity of catechins and other flavonoids: flavonoid conversions by cell-free protein extracts of Centaurea maculosa (spotted knapweed) roots” (J Agric Food Chem, 2003)
Active and inactive are the calls of the source. The rule behind the calls is not given here.

Experiments:
Centaurea diffusa [1] = experiment: Phytotoxicity in Centaurea diffusa assessed as inhibition of seed germination at 50 ug/mL measured on day 14 relative to untreated control; type: functional, organism-based
Triticum aestivum [2] = experiment: Phytotoxicity in Triticum aestivum (wheat) assessed as increase in mortality at 50 ug/mL measured on day 14 relative to untreated control; type: functional, organism-based
[3] = system: Linaria genistifolia subsp. dalmatica; experiment: Phytotoxicity in Linaria genistifolia subsp. dalmatica assessed as inhibition of seed germination at 50 ug/mL measured on day 14 relative to untreated control; type: functional, organism-based
Bassia scoparia [4] = experiment: Phytotoxicity in Bassia scoparia assessed as inhibition of seed germination at 50 ug/mL measured on day 14 relative to untreated control; type: functional, organism-based
Solanum lycopersicum [5] = experiment: Phytotoxicity in Solanum lycopersicum (tomato) assessed as increase in mortality at 50 ug/mL measured on day 14 relative to untreated control; type: organism-based; conditions: in vivo
Bassia scoparia [6] = experiment: Phytotoxicity in Bassia scoparia assessed as increase in mortality at 50 ug/mL measured on day 14 relative to untreated control; type: functional, organism-based
Triticum aestivum [7] = experiment: Phytotoxicity in Triticum aestivum (wheat) assessed as inhibition of seed germination at 50 ug/mL measured on day 14 relative to untreated control; type: functional, organism-based
[8] = system: Linaria genistifolia subsp. dalmatica; experiment: Phytotoxicity in Linaria genistifolia subsp. dalmatica assessed as increase in mortality at 50 ug/mL measured on day 14 relative to untreated control; type: functional, organism-based
Centaurea maculosa [9] = experiment: Phytotoxicity in Centaurea maculosa assessed as increase in mortality at 50 ug/mL measured on day 14 relative to untreated control; type: functional, organism-based
Centaurea diffusa [10] = experiment: Phytotoxicity in Centaurea diffusa assessed as increase in mortality at 50 ug/mL measured on day 14 relative to untreated control; type: functional, organism-based
Centaurea maculosa [11] = experiment: Phytotoxicity in Centaurea maculosa assessed as inhibition of seed germination at 50 ug/mL measured on day 14 relative to untreated control; type: functional, organism-based
Bassia scoparia [12] = experiment: Phytotoxicity in Bassia scoparia assessed as inhibition of shoot differentiation at 250 ug/mL measured on day 14 relative to untreated control; type: functional, organism-based
Bassia scoparia [13] = experiment: Phytotoxicity in Bassia scoparia assessed as inhibition of root differentiation at 250 ug/mL measured on day 14 relative to untreated control; type: functional, organism-based
Centaurea diffusa [14] = experiment: Phytotoxicity in Centaurea diffusa assessed as inhibition of root differentiation at 250 ug/mL measured on day 14 relative to untreated control; type: functional, organism-based
Bassia scoparia [15] = experiment: Phytotoxicity in Bassia scoparia assessed as inhibition of seed germination at 250 ug/mL measured on day 14 relative to untreated control; type: functional, organism-based
Centaurea maculosa [16] = experiment: Phytotoxicity in Centaurea maculosa assessed as inhibition of shoot differentiation at 250 ug/mL measured on day 14 relative to untreated control; type: functional, organism-based
Centaurea maculosa [17] = experiment: Phytotoxicity in Centaurea maculosa assessed as inhibition of seed germination at 250 ug/mL measured on day 14 relative to untreated control; type: functional, organism-based
Centaurea maculosa [18] = experiment: Phytotoxicity in Centaurea maculosa assessed as inhibition of root differentiation at 250 ug/mL measured on day 14 relative to untreated control; type: functional, organism-based
[19] = system: Linaria genistifolia subsp. dalmatica; experiment: Phytotoxicity in Linaria genistifolia subsp. dalmatica assessed as inhibition of shoot differentiation at 250 ug/mL measured on day 14 relative to untreated control; type: functional, organism-based
[20] = system: Linaria genistifolia subsp. dalmatica; experiment: Phytotoxicity in Linaria genistifolia subsp. dalmatica assessed as inhibition of seed germination at 250 ug/mL measured on day 14 relative to untreated control; type: functional, organism-based
[21] = system: Linaria genistifolia subsp. dalmatica; experiment: Phytotoxicity in Linaria genistifolia subsp. dalmatica assessed as inhibition of root differentiation at 250 ug/mL measured on day 14 relative to untreated control; type: functional, organism-based
Centaurea diffusa [22] = experiment: Phytotoxicity in Centaurea diffusa assessed as inhibition of seed germination at 250 ug/mL measured on day 14 relative to untreated control; type: functional, organism-based
Triticum aestivum [23] = experiment: Phytotoxicity in Triticum aestivum (wheat) assessed as inhibition of seed germination at 250 ug/mL measured on day 14 relative to untreated control; type: organism-based; conditions: in vivo
Centaurea diffusa [24] = experiment: Phytotoxicity in Centaurea diffusa assessed as inhibition of shoot differentiation at 250 ug/mL measured on day 14 relative to untreated control; type: functional, organism-based
Bassia scoparia [25] = experiment: Phytotoxicity in Bassia scoparia assessed as increase in mortality at 250 ug/mL measured on day 14 relative to untreated control; type: functional, organism-based
Arabidopsis thaliana = experiment: Phytotoxicity in Arabidopsis thaliana assessed as increase in mortality at 250 ug/mL measured on day 14 relative to untreated control; type: organism-based; conditions: in vivo
Triticum aestivum [26] = experiment: Phytotoxicity in Triticum aestivum (wheat) assessed as increase in mortality at 250 ug/mL measured on day 14 relative to untreated control; type: functional, organism-based
Solanum lycopersicum [27] = experiment: Phytotoxicity in Solanum lycopersicum (tomato) assessed as increase in mortality at 250 ug/mL measured on day 14 relative to untreated control; type: organism-based; conditions: in vivo
[28] = system: Linaria genistifolia subsp. dalmatica; experiment: Phytotoxicity in Linaria genistifolia subsp. dalmatica assessed as increase in mortality at 250 ug/mL measured on day 14 relative to untreated control; type: functional, organism-based
Centaurea diffusa [29] = experiment: Phytotoxicity in Centaurea diffusa assessed as increase in mortality at 250 ug/mL measured on day 14 relative to untreated control; type: functional, organism-based
Centaurea maculosa [30] = experiment: Phytotoxicity in Centaurea maculosa assessed as increase in mortality at 250 ug/mL measured on day 14 relative to untreated control; type: functional, organism-based

SMILES | inhibition (Bassia scoparia [12]) | inhibition (Bassia scoparia [13]) | inhibition (Centaurea diffusa [14]) | inhibition (Bassia scoparia [15]) | inhibition (Centaurea maculosa [16]) | inhibition (Centaurea maculosa [17]) | inhibition (Centaurea maculosa [18]) | inhibition [19] | inhibition [20] | inhibition [21] | inhibition (Centaurea diffusa [22]) | inhibition (INH) (Triticum aestivum [23]) | inhibition (Centaurea diffusa [24]) | further results
Oc1cc(O)c2c(c1)O[C@@H](c1ccc(O)c(O)c1)[C@H](O)C2 [(-)-CATECHIN] |  |  |  |  |  |  |  |  |  |  |  |  |  | inhibition (Centaurea diffusa [1]): Active; inhibition (Triticum aestivum [2]): Active; inhibition [3]: Active; inhibition (Bassia scoparia [4]): Active; inhibition (INH) (Solanum lycopersicum [5]): Toxic; inhibition (Bassia scoparia [6]): Active; inhibition (Triticum aestivum [7]): Active; inhibition [8]: Active; inhibition (Centaurea maculosa [9]): inactive; inhibition (Centaurea diffusa [10]): Active; inhibition (Centaurea maculosa [11]): inactive
O=c1c(O)c(-c2ccc(O)c(O)c2)oc2cc(O)cc(O)c12 [QUERCETIN] | inactive | inactive | inactive | inactive | inactive | inactive | inactive | inactive | inactive | inactive | inactive | Non-toxic | inactive | 
Oc1cc(O)c2c(c1)O[C@@H](c1ccc(O)c(O)c1)[C@@H](O)C2 [(+)-EPICATECHIN] | Active | Active | Active | Active | Active | Active | Active | Active | Active | Active | Active | Toxic | Active | 
Oc1cc(O)c2c(c1)O[C@H](c1ccc(O)c(O)c1)[C@H](O)C2 [(-)-EPICATECHIN] | inactive | inactive | inactive | inactive | inactive | inactive | inactive | inactive | inactive | inactive | inactive | Non-toxic | inactive | 
O=C1C[C@@H](c2ccc(O)cc2)Oc2cc(O)cc(O)c21 [NARINGENIN] | inactive | inactive | inactive | inactive | inactive | inactive | inactive | inactive | inactive | inactive | inactive | Non-toxic | inactive | 
O=C1c2c(O)cc(O)cc2OC(c2ccc(O)c(O)c2)C1O (racemic) [TAXIFOLIN] |  |  |  | Active |  | inactive |  |  | Active |  | Active | Toxic |  | inhibition (Bassia scoparia [25]): Active; inhibition (INH) (Arabidopsis thaliana): Toxic; inhibition (Triticum aestivum [26]): Active; inhibition (INH) (Solanum lycopersicum [27]): Toxic; inhibition [28]: Active; inhibition (Centaurea diffusa [29]): Active; inhibition (Centaurea maculosa [30]): inactive
O=c1c(O)c(-c2ccc(O)cc2)oc2cc(O)cc(O)c12 [KAEMPFEROL] |  |  |  | Active |  | inactive |  |  | Active |  | Active | Toxic |  | inhibition (Bassia scoparia [25]): Active; inhibition (INH) (Arabidopsis thaliana): Toxic; inhibition (Triticum aestivum [26]): Active; inhibition (INH) (Solanum lycopersicum [27]): Toxic; inhibition [28]: Active; inhibition (Centaurea diffusa [29]): Active; inhibition (Centaurea maculosa [30]): inactive
